According to paper PMC9813109, “Phase I dose-escalation study of milademetan in patients with relapsed or refractory acute myeloid leukemia” (International Journal of Hematology, 2022):
“Also recorded” adds a separate entry of the source. Like-named read-outs stand apart in the source and are kept apart here.

How the values were obtained:
[1] = tested on: tumor cells; parameters: method as in PMID 31310659, PMID 30724592; conditions: in vitro studies; cited from earlier work
[2] = tested on: R/R AML (blast count in bone marrow aspirate); assay: Efficacy assessment: best response and bone marrow blast count; type: in vivo, human; conditions: for Best response: Not applicable: SD < 3 months was deemed not applicable
Source text: Bone marrow and peripheral blood results were used to assess the antitumor effect of milademetan. AML response criteria were defined as shown in Supplementary Table 1. A morphologic leukemia-free state (MLFS) was defined as bone marrow blasts < 5% in the absence of blasts with Auer rods and the absence of extramedullary leukemia. The presence/absence of hematological recovery or blood transfusion was not considered. Stable disease (SD) was defined as an absence of CR, CR with incomplete hematologic recovery (CRi) or partial hematologic recovery (CRh), partial remission (PR), or MLFS, provided that the criteria for the progressive disease were not met. SD had to last at least 3 months (assessed as SD more than thrice in a row) after initiating milademetan treatment. SD < 3 months was deemed not applicable. The best-measured response was defined as the best overall response (all time points after the start of study treatment until the end of treatment). The composite CR (CRc) duration was defined as the time between when the criteria for […] first met and when a relapse was first confirmed. In addition to descriptive statistics, the geometric mean and geometric coefficient of variation were used to describe the PK parameters. All analyses were conducted using SAS® software (version 9.4; SAS Institute Inc., Cary, NC, USA). The time courses of mean plasma milademetan concentrations on days 1 and 14 of cycle 1 (linear scale) in the QD 14/28-day schedule were used for pharmacokinetic analysis. The best response was measured as CR, CRh, CRi, or PR. For efficacy analysis, a waterfall plot of the best percent change from baseline blast count in bone marrow aspirate on the QD 14/28-day schedule was drawn to assess the blast count reduction. In addition, line plots of individual serum MIC-1 levels were drawn in the QD 14/28-day schedule for the pharmacodynamics analysis set.

[3] = Plasma pharmacokinetics (validated HPLC/MS, noncompartmental analysis); type: in vivo, human; conditions: for Cmax / AUC(0-t) / Tmax / half-life / AUC(0-inf): human, plasma, oral
Protocol: Milademetan concentrations were determined using a validated HPLC/MS method. The lower limit of quantification was 0.500 ng/mL. Noncompartmental analysis was used to calculate the PK parameters from milademetan plasma concentrations. In addition, the Phoenix WinNonlin 8.1 software (Certara, Princeton, NJ, USA) was used for PK analysis. In addition to descriptive statistics, the geometric mean and geometric coefficient of variation were used to describe the PK parameters. All analyses were conducted using SAS® software (version 9.4; SAS Institute Inc., Cary, NC, USA). The time courses of mean plasma milademetan concentrations on days 1 and 14 of cycle 1 (linear scale) in the QD 14/28-day schedule were used for pharmacokinetic analysis. The best response was measured as CR, CRh, CRi, or PR. For efficacy analysis, a waterfall plot of the best percent change from baseline blast count in bone marrow aspirate on the QD 14/28-day schedule was drawn to assess the blast count reduction. In addition, line plots of individual serum MIC-1 levels were drawn in the QD 14/28-day schedule for the pharmacodynamics analysis set.

[4] = tested on: hematologic malignancies like R/R AML and high-risk myelodysplastic syndrome; conditions: QD 14/28-day schedule, USA phase I, ref NCT02319369, data not published; cited from earlier work
[5] = tested on: MDM2–p53 interaction; parameters: method as in PMID 31310659, PMID 30724592; conditions: in vitro studies; cited from earlier work
[6] = tested on: patients with solid tumors or lymphomas; conditions: QD 21/28-day schedule, Japanese phase I; cited from earlier work

Structure (SMILES): CC1(C)CCC2(CC1)N[C@@H](C(=O)N[C@@H]1CC[C@@H](C(N)=O)OC1)[C@H](c1ccnc(Cl)c1F)[C@]21C(=O)Nc2cc(Cl)ccc21 [milademetan]
- Antitumor effect in vitro [1]: p53 status-dependent antitumor effect
- Best response: Morphologic leukemia-free state ([2]; 90 mg/day (n = 4)): 0 (0.0) n, %
- Best response: Progressive disease ([2]; 90 mg/day (n = 4)): 1 (25.0) n, %
- Best response: Stable disease ([2]; 90 mg/day (n = 4)): 1 (25.0) n, %
- Best response: Not applicable ([2]; 90 mg/day (n = 4)): 2 (50.0) n, %
- Best response: Morphologic leukemia-free state ([2]; 120 mg/day (n = 5)): 1 (20.0) n, %
- Best response: Progressive disease ([2]; 120 mg/day (n = 5)): 1 (20.0) n, %
- Best response: Stable disease ([2]; 120 mg/day (n = 5)): 0 (0.0) n, %
- Best response: Not applicable ([2]; 120 mg/day (n = 5)): 3 (60.0) n, %
- Best response: Morphologic leukemia-free state ([2]; 160 mg/day (n = 3)): 1 (33.3) n, %
- Best response: Progressive disease ([2]; 160 mg/day (n = 3)): 0 (0.0) n, %
- Best response: Stable disease ([2]; 160 mg/day (n = 3)): 0 (0.0) n, %
- Best response: Not applicable ([2]; 160 mg/day (n = 3)): 2 (66.7) n, %
- Patients with a ≥ 50% reduction in baseline blast count in the bone marrow aspirate ([2]; 12 patients): 33.3%
- CR, CRh, CRi, or PR ([2]; 12 patients, 90, 120 or 160 mg): None of the patients
- MLFS, patients ([2]; 12 patients, TP53 wild at baseline): 16.7%
- Best response: Morphologic leukemia-free state ([2]; Total (n = 12)): 2 (16.7) n, %
- Best response: Progressive disease ([2]; Total (n = 12)): 2 (16.7) n, %
- Best response: Stable disease ([2]; Total (n = 12)): 1 (8.3) n, %
- Best response: Not applicable ([2]; Total (n = 12)): 7 (58.3) n, %
- AUCinf ([3]; Day 1 of cycle 1, 90 mg/day, mean (SD), two patients excluded): 13,700 (4,100) ng h/mL
- Mean accumulation ratios based on AUC24h ([3]; Day 14, dose range tested (90-160 mg)): 1.40–1.90
- Ctrough ([3]; Day 14 of cycle 1, 90 mg/day, mean (SD)): 422 (147) ng/mL
- Ctrough ([3]; Day 14 of cycle 1, 120 mg/day, mean (SD)): 635 (533) ng/mL
- Ctrough ([3]; Day 14 of cycle 1, 160 mg/day, mean (SD)): 769 (221) ng/mL
- Increase in Cmax and AUC with dose ([3]; dose range tested, single and multiple dosing): increased linearly with milademetan dose; also recorded: linear and dose-proportional
- Cmax ([3]; 90 mg/day, Day 1 of cycle 1, 90 mg/day, mean (SD)): 653 ng/mL
- AUC(0-t) ([3]; 90 mg/day, Day 1 of cycle 1, 90 mg/day, mean (SD), two patients excluded, read-out: AUC24h): 8640 ng·h/mL
- AUC(0-t) ([3]; 90 mg/day, Day 1 of cycle 1, 90 mg/day, mean (SD), read-out: AUC8h): 3170 ng·h/mL
- AUC(0-t) ([3]; 90 mg/day, Day 1 of cycle 1, 90 mg/day, mean (SD), read-out: AUClast): 8060 ng·h/mL
- Tmax ([3]; 90 mg/day, Day 1 of cycle 1, 90 mg/day, median (minimum, maximum), read-out: Tmax): 4.45 h
- Cmax ([3]; 90 mg/day, Day 14 of cycle 1, 90 mg/day, mean (SD)): 1090 ng/mL
- AUC(0-t) ([3]; 90 mg/day, Day 14 of cycle 1, 90 mg/day, mean (SD), read-out: AUC8h): 6220 ng·h/mL
- Tmax ([3]; 90 mg/day, Day 14 of cycle 1, 90 mg/day, median (minimum, maximum), read-out: Tmax): 3.02 h
- Cmax ([3]; 120 mg/day, Day 1 of cycle 1, 120 mg/day, mean (SD)): 1010 ng/mL
- AUC(0-t) ([3]; 120 mg/day, Day 1 of cycle 1, 120 mg/day, mean (SD), one patient excluded, read-out: AUC24h): 12100 ng·h/mL
- AUC(0-t) ([3]; 120 mg/day, Day 1 of cycle 1, 120 mg/day, mean (SD), read-out: AUC8h): 4940 ng·h/mL
- AUC(0-t) ([3]; 120 mg/day, Day 1 of cycle 1, 120 mg/day, mean (SD), read-out: AUClast): 11300 ng·h/mL
- Tmax ([3]; 120 mg/day, Day 1 of cycle 1, 120 mg/day, median (minimum, maximum), read-out: Tmax): 3.13 h
- Cmax ([3]; 120 mg/day, Day 14 of cycle 1, 120 mg/day, mean (SD)): 1680 ng/mL
- AUC(0-t) ([3]; 120 mg/day, Day 14 of cycle 1, 120 mg/day, mean (SD), read-out: AUC8h): 10000 ng·h/mL
- Tmax ([3]; 120 mg/day, Day 14 of cycle 1, 120 mg/day, median (minimum, maximum), read-out: Tmax): 2.98 h
- Cmax ([3]; 160 mg/day, Day 1 of cycle 1, 160 mg/day, mean (SD)): 1380 ng/mL
- AUC(0-t) ([3]; 160 mg/day, Day 1 of cycle 1, 160 mg/day, mean (SD), two patients excluded, read-out: AUC24h): 15000 ng·h/mL
- AUC(0-t) ([3]; 160 mg/day, Day 1 of cycle 1, 160 mg/day, mean (SD), read-out: AUC8h): 6560 ng·h/mL
- AUC(0-t) ([3]; 160 mg/day, Day 1 of cycle 1, 160 mg/day, mean (SD), read-out: AUClast): 14900 ng·h/mL
- Tmax ([3]; 160 mg/day, Day 1 of cycle 1, 160 mg/day, median (minimum, maximum), read-out: Tmax): 2.54 h
- Cmax ([3]; 160 mg/day, Day 14 of cycle 1, 160 mg/day, mean (SD)): 2710 ng/mL
- AUC(0-t) ([3]; 160 mg/day, Day 14 of cycle 1, 160 mg/day, mean (SD), read-out: AUC8h): 15300 ng·h/mL
- Tmax ([3]; 160 mg/day, Day 14 of cycle 1, 160 mg/day, median (minimum, maximum), read-out: Tmax): 3.03 h
- half-life ([3]; Day 1 of cycle 1, 90 mg/day, mean (SD), two patients excluded, read-out: t1/2 (converted)): 15.9 h
- AUC(0-inf) ([3]; Day 1 of cycle 1, 120 mg/day, mean (SD), one patient excluded): 18600 ng·h/mL
- half-life ([3]; Day 1 of cycle 1, 120 mg/day, mean (SD), one patient excluded, read-out: t1/2 (converted)): 14.1 h
- AUC(0-inf) ([3]; Day 1 of cycle 1, 160 mg/day, mean (SD), two patients excluded): 22700 ng·h/mL
- half-life ([3]; Day 1 of cycle 1, 160 mg/day, mean (SD), two patients excluded, read-out: t1/2 (converted)): 14.6 h
- half-life ([3]; across doses, read-out: Mean half-life (converted)): ~15 h
- Tmax ([3]; across doses, read-out: Median Tmax): 3 to 4 h
- Maximum tolerated dose (MTD) [4]: 160 mg
- Effect on MDM2–p53 interaction [5]: inhibits the MDM2–p53 interaction
- Maximum tolerated dose (MTD) [6]: 90 mg
